The values that follow come from patent publication US9708334B2, “Substituted 2,4,5,6-tetrahydropyrrolo[3,4-c]pyrazole and 4,5,6,7-tetrahydro-2H-pyrazolo[4,3-c]pyridine compounds as GlyT1 inhibitors” (DART NEUROSCIENCE (CAYMAN) LTD., priority 2014, dated 2017).

A value given as a limit tells only on which side of the number the result lay.

The target of this assay is T1, GlyT1 (Homo sapiens, UniProt P48067).
T1 construct: expressed in transfected cells
T1 sequence (P48067 1-706): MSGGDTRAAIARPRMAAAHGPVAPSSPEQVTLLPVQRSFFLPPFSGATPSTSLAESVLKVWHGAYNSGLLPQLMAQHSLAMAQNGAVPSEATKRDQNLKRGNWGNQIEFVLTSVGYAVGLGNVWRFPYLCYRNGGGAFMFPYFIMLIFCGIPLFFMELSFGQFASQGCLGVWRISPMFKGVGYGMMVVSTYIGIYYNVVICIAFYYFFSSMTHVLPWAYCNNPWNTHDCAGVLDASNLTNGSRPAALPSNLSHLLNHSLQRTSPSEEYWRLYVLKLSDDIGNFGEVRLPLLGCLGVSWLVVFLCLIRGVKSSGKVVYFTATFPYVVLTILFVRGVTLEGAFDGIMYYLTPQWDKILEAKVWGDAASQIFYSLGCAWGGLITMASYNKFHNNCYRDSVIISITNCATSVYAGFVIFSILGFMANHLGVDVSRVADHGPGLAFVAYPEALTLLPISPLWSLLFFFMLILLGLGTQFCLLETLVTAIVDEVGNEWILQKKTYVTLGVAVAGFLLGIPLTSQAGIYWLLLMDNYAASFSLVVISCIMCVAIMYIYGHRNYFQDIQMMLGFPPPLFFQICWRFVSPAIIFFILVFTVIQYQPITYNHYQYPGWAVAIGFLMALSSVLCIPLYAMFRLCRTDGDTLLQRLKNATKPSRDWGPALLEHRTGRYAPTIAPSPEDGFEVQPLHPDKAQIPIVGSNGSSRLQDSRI
The assay is described as follows: Glycine Transporter 1 (GlyT1) uptake assay, scintillation proximity assay of [14C]-glycine uptake. The class given is cell-based. Particulars: SPA, four parameter logistic fit, read-out: GlyT1 (pIC50) (converted). The essentials:
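[14C]-glycine uptake read by scintillation proximity on a plate counter. IC50 from four-parameter logistic fit of dose-response data.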
(In general: In a scintillation proximity assay essentially only radioactivity close to the scintillant gives light.)
For the molecule `C[C@H](Oc1ccc(S(C)(=O)=O)cc1C(=O)N1Cc2cn(CC3CC3(F)F)nc2C1)C(F)(F)F` (stereo partly drawn) [Example 455, 2-[(2 2-Difluorocyclopropyl)methyl]-5-(5-methanesulfonyl-2-{[(2S)-1 1 1-trifluoropropan-2-yl]oxy}benzoyl)-2H 4H 5H 6H-pyrrolo[3,4-c]pyrazole], the IC50 was under 100 nM.

As to `CC(C)Oc1ccc(C#N)cc1C(=O)N1Cc2cn(CC3CC3(F)F)nc2C1` (stereo not shown) [Example 456, 3-{2-[(2 2-Difluorocyclopropyl)methyl]-2H 4H 5H 6H-pyrrolo[3,4-c]pyrazole-5-carbonyl}-4-(propan-2-yloxy)benzonitrile], the IC50 is 100 to 1000 nM.

Consider `C[C@H](Oc1ccc(C#N)cc1C(=O)N1Cc2cn(CC3CC3(F)F)nc2C1)C(F)(F)F` (stereo partly drawn) [Example 457, 3-{2-[(2 2-Difluorocyclopropyl)methyl]-2H 4H 5H 6H-pyrrolo[3,4-c]pyrazole-5-carbonyl}-4-{[(2S)-1 1 1-trifluoropropan-2-yl]oxy}benzonitrile], for which the IC50 was 100 to 1000 nM.

Consider `C[C@H](Oc1ccc(C#N)cc1C(=O)N1Cc2cnn(C3CCOCC3)c2C1)C(F)(F)F` [Example 458, 3-[1-(Oxan-4-yl)-1H 4H 5H 6H-pyrrolo[3,4-c]pyrazole-5-carbonyl]-4-{[(2S)-1 1 1-trifluoropropan-2-yl]oxy}benzonitrile], for which the IC50 was over 10000 nM.

In the case of `CC(C)Oc1ccc(C#N)cc1C(=O)N1Cc2cn(-c3ccnc(C4CCC4)c3)nc2C1` [Example 459, 3-[2-(2-Cyclobutylpyridin-4-yl)-2H 4H 5H 6H-pyrrolo[3,4-c]pyrazole-5-carbonyl]-4-(propan-2-yloxy)benzonitrile], the IC50 is under 100 nM.

Consider `C[C@H](Oc1ccc(C#N)cc1C(=O)N1Cc2cn(-c3ccnc(C4CCC4)c3)nc2C1)C(F)(F)F` [Example 460, 3-[2-(2-Cyclobutylpyridin-4-yl)-2H 4H 5H 6H-pyrrolo[3,4-c]pyrazole-5-carbonyl]-4-{[(2S)-1 1 1-trifluoropropan-2-yl]oxy}benzonitrile], for which the IC50 was under 100 nM.

On to `CC(C)Oc1ccc(S(C)(=O)=O)cc1C(=O)N1Cc2cn(CC3CC(F)(F)C3)nc2C1` [Example 461, 2-[(3 3-Difluorocyclobutyl)methyl]-5-[5-methanesulfonyl-2-(propan-2-yloxy)benzoyl]-2H 4H 5H 6H-pyrrolo[3,4-c]pyrazole], for which the IC50 was under 100 nM.

For `C[C@H](Oc1ccc(C#N)cc1C(=O)N1Cc2cn(CC3CC(F)(F)C3)nc2C1)C(F)(F)F` [Example 462, 3-{2-[(3 3-Difluorocyclobutyl)methyl]-2H 4H 5H 6H-pyrrolo[3,4-c]pyrazole-5-carbonyl}-4-{[(2S)-1 1 1-trifluoropropan-2-yl]oxy}benzonitrile], the IC50 was 100 to 1000 nM.

Take `C[C@H](Oc1ccc(S(C)(=O)=O)cc1C(=O)N1Cc2cn(CC3CC(F)(F)C3)nc2C1)C(F)(F)F` [Example 463]: the IC50 was under 100 nM.

With `CS(=O)(=O)c1ccc(-c2cccc(F)c2)c(C(=O)N2Cc3cn(CC4CC(F)(F)C4)nc3C2)c1` [Example 464, 2-[(3 3-Difluorocyclobutyl)methyl]-5-[2-(3-fluorophenyl)-5-methanesulfonylbenzoyl]-2H 4H 5H 6H-pyrrolo[3,4-c]pyrazole], the IC50 was under 100 nM.

Take `C[C@H](Oc1ccc(C#N)cc1C(=O)N1Cc2cn(-c3ccc(C#N)nc3)nc2C1)C(F)(F)F` [Example 465, 5-[5-(5-Cyano-2-{[(2S)-1 1 1-trifluoropropan-2-yl]oxy}benzoyl)-2H 4H 5H 6H-pyrrolo[3,4-c]pyrazol-2-yl]pyridine-2-carbonitrile]: the IC50 is 100 to 1000 nM.

In the case of `CC(C)Oc1ccc(C#N)cc1C(=O)N1Cc2cn(-c3ccc(C#N)nc3)nc2C1` [Example 466], the IC50 is 100 to 1000 nM.

`C[C@H](Oc1ccc(C#N)cc1C(=O)N1Cc2cn(-c3ccnc(C#N)c3)nc2C1)C(F)(F)F` [Example 467, 4-[5-(5-Cyano-2-{[(2S)-1 1 1-trifluoropropan-2-yl]oxy}benzoyl)-2H 4H 5H 6H-pyrrolo[3,4-c]pyrazol-2-yl]pyridine-2-carbonitrile]: the IC50 was 100 to 1000 nM.
